Among the data in ChEMBL document CHEMBL3112450, “Synthesis and in vitro antitumor evaluation of primary amine substituted quinazoline linked benzimidazole” (Bioorg Med Chem Lett, 2014) are growth values, retold here.

Common to all, as to format: functional
The test system of experiment [1] is LOX IMVI. The experiment in a line: Cytotoxicity against human LOXIMVI cells assessed as cell growth at 10^-5 M after 48 hrs by SRB assay. Particulars: read-out: Activity.
Experiment [2] deals with U-251. The experiment in a line: Cytotoxicity against human U251 cells assessed as cell growth at 10^-5 M after 48 hrs by SRB assay. Conditions: U-251, 48 h, read-out: Activity.
Experiment [3] has as its system SF-295. Put plainly: Cytotoxicity against human SF295 cells assessed as cell growth at 10^-5 M after 48 hrs by SRB assay. Particulars: SF-295, 48 h, read-out: Activity.
The subject of experiment [4] is KM12. The experiment in a line: Cytotoxicity against human KM12 cells assessed as cell growth at 10^-5 M after 48 hrs by SRB assay. Conditions: KM12, 48 h, read-out: Activity.
Experiment [5] concerns M14. The experiment in a line: Cytotoxicity against human M14 cells assessed as cell growth at 10^-5 M after 48 hrs by SRB assay. Conditions: M14, 48 h, read-out: Activity.
Experiment [6] deals with NCI-H460. Put plainly: Cytotoxicity against human NCI-H460 cells assessed as cell growth at 10^-5 M after 48 hrs by SRB assay. Particulars: NCI-H460, 48 h, read-out: Activity.
The test system of experiment [7] is T47D. Put plainly: Cytotoxicity against human T47D cells assessed as cell growth at 10^-5 M after 48 hrs by SRB assay. Conditions: read-out: Activity.
Experiment [8] is described as follows: Cytotoxicity against human OVCAR5 cells assessed as cell growth at 10^-5 M after 48 hrs by SRB assay. Particulars: OVCAR-5, 48 h, read-out: Activity.
Experiment [9] is described as follows: Cytotoxicity against human UACC257 cells assessed as cell growth at 10^-5 M after 48 hrs by SRB assay. Conditions: UACC-257, 48 h, read-out: Activity.
The subject of experiment [10] is NCI-H522. The experiment in a line: Cytotoxicity against human NCI-H522 cells assessed as cell growth at 10^-5 M after 48 hrs by SRB assay. Particulars: NCI-H522, 48 h, read-out: Activity.
For experiment [11], the system named is K562. The experiment in a line: Cytotoxicity against human K562 cells assessed as cell growth at 10^-5 M after 48 hrs by SRB assay. Particulars: K562, 48 h, read-out: Activity.
For experiment [12], the system named is SN12C. The experiment in a line: Cytotoxicity against human SN12C cells assessed as cell growth at 10^-5 M after 48 hrs by SRB assay. Particulars: read-out: Activity.
Experiment [13] relates to HT-29. The experiment in a line: Cytotoxicity against human HT-29 cells assessed as cell growth at 10^-5 M after 48 hrs by SRB assay. Particulars: HT-29, 48 h, read-out: Activity.
The subject of experiment [14] is RXF 393. Put plainly: Cytotoxicity against human RXF393 cells assessed as cell growth at 10^-5 M after 48 hrs by SRB assay. Particulars: RXF 393, 48 h, read-out: Activity.
In experiment [15] the test system is NCI-H23. Put plainly: Cytotoxicity against human NCI-H23 cells assessed as cell growth at 10^-5 M after 48 hrs by SRB assay. Particulars: NCI-H23, 48 h, read-out: Activity.
Experiment [16] relates to UACC-62. The experiment in a line: Cytotoxicity against human UACC62 cells assessed as cell growth at 10^-5 M after 48 hrs by SRB assay. Particulars: UACC-62, 48 h, read-out: Activity.
In experiment [17] the test system is OVCAR-3. Put plainly: Cytotoxicity against human OVCAR3 cells assessed as cell growth at 10^-5 M after 48 hrs by SRB assay. Particulars: OVCAR-3, 48 h, read-out: Activity.
Experiment [18] can be described thus: Cytotoxicity against human OVCAR4 cells assessed as cell growth at 10^-5 M after 48 hrs by SRB assay. Conditions: OVCAR-4, 48 h, read-out: Activity.
The test system of experiment [19] is SK-MEL-2. Put plainly: Cytotoxicity against human SK-MEL-2 cells assessed as cell growth at 10^-5 M after 48 hrs by SRB assay. Conditions: SK-MEL-2, 48 h, read-out: Activity.
The test system of experiment [20] is MDA-MB-231. Put plainly: Cytotoxicity against human MDA-MB-231 cells assessed as cell growth at 10^-5 M after 48 hrs by SRB assay. Conditions: MDA-MB-231, 48 h, read-out: Activity.
Experiment [21] concerns SK-OV-3. Put plainly: Cytotoxicity against human SKOV3 cells assessed as cell growth at 10^-5 M after 48 hrs by SRB assay. Conditions: SK-OV-3, 48 h, read-out: Activity.
Experiment [22] has as its system IGROV-1. The experiment in a line: Cytotoxicity against human IGROV1 cells assessed as cell growth at 10^-5 M after 48 hrs by SRB assay. Particulars: IGROV-1, 48 h, read-out: Activity.

For `C=CCn1c(C)nc2ccc(Nc3nc(Nc4ncccn4)nc4ccccc34)cc21`, the growth at 10 µM in experiment [1] is 85.3%; in [2], 89.8%; in experiment [3] it was 86.9%; in experiment [4], 106%; in [5] it was 115%; in [6], 97.8%. The growth at 10 µM in experiment [7] turned out to be 55.8%; in experiment [8] it was 114%; in experiment [9], 101%; in experiment [10], 98.1%; in [11] it was 83%; in experiment [12] it was 97.6%. In addition, the growth at 10 µM in experiment [13] came out at 104%; in [14], 114%; in [15], 82.8%; in experiment [16] it was 92.6%; in experiment [17] it was 99.3%; in experiment [18] it was 85.6%. In addition, the growth at 10 µM in experiment [19] stood at 100%; in experiment [20] it was 84.4%; in experiment [21] it was 104%; in experiment [22], 84.1%.
Regarding `C=CCn1c(C)nc2ccc(Nc3nc(NCCO)nc4ccccc34)cc21`, the growth at 10 µM in [1] amounted to 88.5%; in experiment [2], 98.5%; in [3], 146%; in [4] it was 102%; in [5], 111%; in [6], 103%. Moreover, the growth at 10 µM in experiment [7] stood at 95.8%; in [8] it was 107%; in experiment [9], 100%; in experiment [10], 101%; in experiment [11] it was 92.2%; in experiment [12], 87.6%. The growth at 10 µM amounted to 103% in [13]; 116% in experiment [14]; 92.7% in experiment [15]; 92.7% in [16]; 98.3% in experiment [17]; 88.4% in experiment [18]. Also, the growth at 10 µM in experiment [19] was 127%; in [20], 84.5%; in experiment [21], 109%; in experiment [22], 90.1%.
Consider `C=CCn1c(C)nc2cc(Nc3nc(NCCO)nc4ccccc34)ccc21`, for which the growth at 10 µM in experiment [1] is 85.6%; in experiment [2], 90.9%; in experiment [3], 90.6%; in experiment [4], 73.1%; in [5], 93.3%; in experiment [6] it was 96%. Also, the growth at 10 µM in [7] came out at 69%; in experiment [8], 92.2%; in experiment [9], 97.7%; in experiment [10] it was 88.1%; in experiment [11] it was 64.1%; in experiment [12], 84.7%. In addition, the growth at 10 µM in experiment [13] is 64.5%; in experiment [14], 97.5%; in experiment [15] it was 81.9%; in [16] it was 85.5%; in experiment [17], 94.8%; in [18], 65.2%. In addition, the growth at 10 µM in experiment [19] turned out to be 102%; in [20], 72.9%; in [21], 103%; in [22], 95.3%.
For the compound `C=CCn1c(C)nc2cc(Nc3nc(Nc4ccc5nc(C)n(CC=C)c5c4)nc4ccccc34)ccc21`, the growth at 10 µM came out at 93.3% in experiment [1]; 94.4% in experiment [2]; 109% in experiment [4]; 109% in experiment [5]; 117% in [6]; 96% in experiment [7]. Further, the growth at 10 µM in experiment [8] worked out at 107%; in experiment [9] it was 102%; in [10] it was 99.1%; in experiment [11], 102%; in experiment [12], 96.5%; in [13], 103%. Further, the growth at 10 µM in experiment [14] amounted to 124%; in [15] it was 94.2%; in experiment [16], 95.8%; in experiment [17], 108%; in [18], 99.5%; in experiment [19], 121%. Besides, the growth at 10 µM in [20] is 90%; in experiment [21], 104%; in experiment [22] it was 102%.
In the case of `C=CCn1c(C)nc2ccc(Nc3nc(Sc4ccc(N)cc4)nc4ccccc34)cc21`, the growth at 10 µM in experiment [1] was determined as 97%; in experiment [2], 91.3%; in experiment [3], 77.1%; in experiment [4], 96.8%; in experiment [5], 109%; in experiment [6], 104%. Also, the growth at 10 µM in experiment [7] was found to be 71.7%; in experiment [8] it was 118%; in experiment [9] it was 110%; in experiment [10], 89.5%; in [11] it was 92.5%; in [12], 93.9%. Also, the growth at 10 µM in experiment [13] was 97.3%; in [14], 144%; in experiment [15], 101%; in [16], 83.1%; in experiment [17], 106%; in [18] it was 88.5%. Also, the growth at 10 µM in experiment [19] came to 109%; in experiment [20], 80.5%; in experiment [21], 124%; in [22], 102%.
